Test results from patent US20220079931A1, “ESTROGEN RECEPTOR PROTEIN DEGRADERS” (THE REGENTS OF THE UNIVERSITY OF MICHIGAN, priority 2019, published 2022).

How the values were obtained:
VHL-ElonginBC complex = target: T1, VHL-ElonginBC complex (Homo sapiens, UniProt P40337); experiment: Fluorescence-polarization (FP) competitive binding assay for VHL; settings: VHL ligands; VHL-ElonginBC complex and fluorescent probe both 5 nM; read-out: FP Binding affinity IC50
T1 construct: His-TEV (His-tag with TEV protease site) (cleaved yes); made in house; host or cells: E. coli BL21(DE3)
Method: Cloning and Purification of VHL-ElonginBC complex. The DNA sequence of VHL (coding for residues 54-213) was constructed by PCR and inserted into a His-TEV expression vector^58 using ligation-independent cloning. The DNA sequences of Elongin B (encoding residues 1-118) and Elongin C (encoding residues 1-96) were constmcted by PCR and inserted into pCDFDuet 1 using Gibson assembly.^59 BL21(DE3) cells were transformed simultaneously with both plasmids and grown in Terrific Broth at 37° C. until an OD600 of 1.2. The cells were induced overnight with 0.4 mM IPTG at 24° C. Pelleted cells were freeze-thawed then resuspended in 20 mM Tris HCl pH7.0, 200 mM NaCl and 0.1% β-mercaptoethanol (bME) containing protease inhibitors. The cell suspension was lysed by sonication and debris removed via centrifugation. The supernatant was incubated at 4° C. for 1 hr with Ni-NTA (Qiagen) pre-washed in 20 mM Tris-HCl pH 7.0, 200 mM NaCl and 10 mM Imidazole. The protein complex was eluted in 20 mM Tris-HCl pH 7.0, 200 mM NaCl and 300 mM Imidazole, dialyzed into 20 mM Tris-HCl pH 7.0, 150 mM NaCl, and 0.01% bME and incubated with TEV protease overnight at 4° C. The protein sample was reapplied to the Ni-NTA column to remove the His-tag. The flow through containing the VHL complex was diluted to 75 mM NaCl and applied to a HiTrap Q column (GE Healthcare). The sample was eluted with a salt gradient (0.075-1 M NaCl), concentrated and further purified on a Superdex S75 column (GE Healthcare) pre-equilibrated with 20 mM Bis-Tris 7.0, 150 mM NaCl and 1 mM DTT. Samples were aliquoted and stored at −80° C.
Binding Affinities of VHL ligands to VHL. A fluorescence-polarization (FP) competitive assay was established using VHL-ElonginBC complex and a fluorescently tagged probe (SI). The IC50 and Ki values of VHL ligands were determined in competitive binding experiments. Mixtures of 5 μL of compounds in DMSO and 95 μL of preincubated protein/tracer complex solution were added into assay plates which were incubated at rt for 60 min with gentle shaking. Final concentrations of VHL-ElonginBC complex and fluorescent probe were both 5 nM. Negative controls containing protein/probe complex only (equivalent to 0% inhibition) and positive controls containing only free probes (equivalent to 100% inhibition) were included in each assay plate. FP values in millipolarization units (mP) were measured using the Infinite M-1000 plate reader (Tecan U.S., Research Triangle Park, N.C.) in Microfluor 1 96-well, black, round-bottom plates (Thermo Scientific, Waltham, Mass.) at an excitation wavelength of 485 nm and an emission wavelength of 530 nm. IC50 values were determined by nonlinear regression fitting of the competition curves. Ki values of competitive inhibitors were obtained directly by nonlinear regression fitting, based upon the KD values of the probe and concentrations of the protein and probe in the competitive assays. All the FP competitive experiments were performed in duplicate in three independent experiments.

MCF-7 cells = experiment: WST-8 cell proliferation assay in MCF-7 cells; assay type: cell-based, human; settings: MCF-7 cells, WST-8, 4 days
Method: (§1) Cell Culture. Human breast cancer cell lines MCF-7 (ATCC® HTB-22™) and T47D (ATCC® HTB-133™) were purchased from the American Type Culture Collection (ATCC), Manassas, Va., and maintained and cultured in Dulbecco's Modified Eagle's medium (DMEM) containing 10% fetal bovine serum, 1 unit/ml of penicillin and 1 μg/ml of streptomycin. Cells with 3-8 passages after purchase were used in experiments as indicated.
Cell Growth Assay. Cells were seeded at 1500/well in 96 well plates overnight. One day after seeding, they were treated with indicated doses of compounds. The growth of the cells was evaluated by colorimetric WST-8 assay 4 days after the compound treatment following the instructions of the manufacturer, Cayman Chemical, Ann Arbor, Mich.
Fulvestrant achieves an Imax value of 43.8%. […] RAD1901, a previously reported SERD molecule^18, achieves an Imax value of 25.7%.

ERα [1] = target: T2, ERα (Homo sapiens, UniProt P03372); experiment: Mechanism of ER degradation: pretreatment with VHL ligand, ER ligand or proteasome inhibitor, Western blotting in MCF-7 cells; assay type: cell-based; parameters: host or cells: MCF-7; settings: 1 μM, alone
T2 sequence (P03372 1-595): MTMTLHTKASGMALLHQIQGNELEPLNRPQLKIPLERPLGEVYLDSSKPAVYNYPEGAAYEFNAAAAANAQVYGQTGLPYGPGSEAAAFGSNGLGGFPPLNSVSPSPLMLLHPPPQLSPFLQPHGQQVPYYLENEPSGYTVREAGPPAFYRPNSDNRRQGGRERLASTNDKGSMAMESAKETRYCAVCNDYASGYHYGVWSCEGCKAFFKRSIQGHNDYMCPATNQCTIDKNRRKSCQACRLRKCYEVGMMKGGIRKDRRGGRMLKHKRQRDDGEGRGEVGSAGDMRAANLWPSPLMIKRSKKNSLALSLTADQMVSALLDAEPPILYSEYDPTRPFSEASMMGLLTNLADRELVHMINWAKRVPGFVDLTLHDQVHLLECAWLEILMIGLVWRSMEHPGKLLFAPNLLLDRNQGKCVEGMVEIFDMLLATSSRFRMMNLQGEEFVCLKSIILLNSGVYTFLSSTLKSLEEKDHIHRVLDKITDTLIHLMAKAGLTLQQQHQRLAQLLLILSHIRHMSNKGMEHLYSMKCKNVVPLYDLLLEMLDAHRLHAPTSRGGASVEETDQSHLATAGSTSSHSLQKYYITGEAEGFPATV
Method: (§2) Then whole-cell lysates were analyzed by Western blotting.
as §2
Western Blot Analysis. […] Cells treated with indicated compounds were lysed in Radioimmunoprecipitation Assay Protein Lysis and Extraction Buffer (25 mmol/L Tris.HCl, pH 7.6, 150 mmol/L NaCl, 1% Nonidet P-40, 1% sodium deoxycholate, and 0.1% sodium dodecyl sulfate) containing proteinase inhibitor cocktail (Roche Diagnostics, Mannheim, Germany). After determination of protein concentration by BCA assay (Fisher Scientific, Pittsburgh, Pa.), equal amounts of total protein were electrophoresed through 10% SDS-polyacrylamide gels. The separated protein bands were transferred onto PVDF membranes (GE Healthcare Life Sciences, Marlborough, Mass.) and blotted against different antibodies, as indicated. The human estrogen receptor a antibodies (AB16460) were purchased from Abeam, Inc., Cambridge, Mass. The membranes were reblotted with horseradish peroxidase-conjugated anti-glyceraldehyde-3-phosphate dehydrogenase antibody (G9295) from Sigma-Aldrich Corporation, St. Louis, Mo. The blots were scanned and the band intensities were quantified using GelQuant.NET software as described in biochemlabsolutions.com. The relative mean intensity of target proteins was expressed after normalization to the intensity of glyceraldehyde-3-phosphate dehydrogenase bands from individual repeats.

[2] = background statement; cited from earlier work
ERα [3] = target: T2, ERα; experiment: ER degradation by Western blotting in MCF-7 cells; assay type: cell-based; parameters: host or cells: MCF-7; settings: 30 nM
Method: FIG. 1 is an image showing the Western blotting analysis of ER protein in MCF-7 cells treated with Compounds of the Disclosure and control compounds. Cells were treated with different compounds for 4 h and whole cell lysates were then analyzed by Western blotting to examine the level of ER protein. GADPH protein was used for the loading control. The numbers below the panel represent the ERα/GADPH ratio normalized with the DMSO control at 100.
FIG. 2 is an image showing the Western blotting analysis of ER protein in the MCF-7 cells treated with indicated compounds at 1 nM, 10 nM and 100 nM. MCF-7 cells were treated with different compounds for 4 h and whole cell lysates were analyzed by Western blotting to examine the level of ER protein. GADPH protein was used for the loading control. The numbers below the panel represent the ERα/GADPH ratio normalized with the DMSO control at 100.
FIG. 7 is an image showing the ERα degradation dose-response Western blotting for compound 32 at 4 h in MCF-7 cells.
FIG. 9 is an image showing the time course of ERα degradation by Western blotting by compound 32 (30 nM) and fulvestrant (30 nM) in the MCF-7 cells.
as §1
Western Blot Analysis. Western blot analysis was performed essentially as described previously (Hu et al, 2015, PMID: 26358219). Cells treated with indicated compounds were lysed in Radioimmunoprecipitation Assay Protein Lysis and Extraction Buffer (25 mmol/L Tris.HCl, pH 7.6, 150 mmol/L NaCl, 1% Nonidet P-40, 1% sodium deoxycholate, and 0.1% sodium dodecyl sulfate) containing proteinase inhibitor cocktail (Roche Diagnostics, Mannheim, Germany). After determination of protein concentration by BCA assay (Fisher Scientific, Pittsburgh, Pa.), equal amounts of total protein were electrophoresed through 10% SDS-polyacrylamide gels. The separated protein bands were transferred onto PVDF membranes (GE Healthcare Life Sciences, Marlborough, Mass.) and blotted against different antibodies, as indicated. The human estrogen receptor a antibodies (AB16460) were purchased from Abeam, Inc., Cambridge, Mass. The membranes were reblotted with horseradish peroxidase-conjugated anti-glyceraldehyde-3-phosphate dehydrogenase antibody (G9295) from Sigma-Aldrich Corporation, St. Louis, Mo. The blots were scanned and the band intensities were quantified using GelQuant.NET software as described in biochemlabsolutions.com. The relative mean intensity of target proteins was expressed after normalization to the intensity of glyceraldehyde-3-phosphate dehydrogenase bands from individual repeats.

[4] = background statement; cited from earlier work; remark: listed apart in the source

Row | IC50 (VHL-ElonginBC complex) [µM] | Compound | maximum inhibition (Imax) (MCF-7 cells) [%] | other results
1 | 58.9 ± 5.26 | CC(=O)N[C@H](C(=O)N1C[C@H](O)C[C@H]1C(=O)N[C@@H](C)c1ccc(C(C)(C)C)cc1)C(C)(C)C [48a, (2S,4R)-1-((S)-2-acetamido-3,3-dimethylbutanoyl)-N—((S)-1-(4-(tert-butyl)phenyl)ethyl)-4-hydroxypyrrolidine-2-carboxamide] | – | –
2 | – | CCNCCc1ccc(CN(CC)c2cc(OC)ccc2[C@@H]2CCc3cc(O)ccc3C2)cc1 [RAD1901] | 25.7 | –
3 | – | CC(C)C[C@H](NC(=O)[C@H](CCc1ccccc1)NC(=O)CN1CCOCC1)C(=O)N[C@@H](Cc1ccccc1)C(=O)N[C@@H](CC(C)C)C(=O)[C@@]1(C)CO1 [carfilzomib, reference compound] | – | effect alone on ER protein levels (ERα [1]): no effect
4 | 0.196 ± 0.006 | CC(=O)N[C@H](C(=O)N1C[C@H](O)C[C@H]1C(=O)N[C@@H](C)c1ccc(-c2scnc2C)cc1)C(C)(C)C [compound 11, (2S,4R)-1-((S)-2-Acetamido-3,3-dimethylbutanoyl)-4-hydroxy-N—((S)-1-(4-(4-methylthiazol-5-yl)phenyl)ethyl)pyrrolidine-2-carboxamide, reference compound] | – | –
5 | – | C[C@]12CC[C@@H]3c4ccc(O)cc4C[C@@H](CCCCCCCCC[S+]([O-])CCCC(F)(F)C(F)(F)F)[C@H]3[C@@H]1CC[C@@H]2O (stereo partly shown) [fulvestrant] | 43.8 | solubility [2]: poor solubility; reduction of ER protein level at 1 h (ERα [3]; 1 h treatment): only a modest effect; maximum ER degradation in time course (ERα [3]; after a 24 h treatment): approximately 90%; oral bioavailability [4]: not orally bioavailable
6 | – | O=C(c1ccc(OCCN2CCCCC2)cc1)c1c(-c2ccc(O)cc2)sc2cc(O)ccc12 [raloxifene] | 34.0 | –
